Assay results: patent publication US4374245A, “8-[3-(6-Fluoro-1,2-benzisoxazol-3-yl)propyl]- 1-phenyl-1,3,8-triazaspiro[4.5]decan-4-one” (Hoechst-Roussel Pharmaceuticals Inc., priority 1982, dated 1983)
Where two headings read alike, the source gives them in different places.

Key:
[1] = tested on: apomorphine-induced climbing; test: climbing mice assay (apomorphine-induced climbing, antipsychotic activity); format: in vivo, CK-1 male mice; conditions: Mus musculus, ip, read-out: Antipsychotic Activity ED50
[2] = tested on: phenyl-para-quinone induced writhes; test: animal or person; format: in vivo, mice; conditions: Mus musculus, sc, read-out: Analgesic Activity (ED50)

Row | SMILES | ED50 [2] | further results
1 | O=C(CCCN1CCC(O)(c2ccc(Cl)cc2)CC1)c1ccc(F)cc1 [haloperidol] | – | ED50 [1]: 0.11 mg/kg
2 | CC(C)=CCN1CCC2(C)c3cc(O)ccc3CC1C2C (stereo not shown) [pentazocin] | 1.3 mg/kg | –
3 | CCC(=O)O[C@](Cc1ccccc1)(c1ccccc1)[C@H](C)CN(C)C [propoxyphene] | 3.9 mg/kg | –
4 | CCN1CCCC1CNC(=O)c1cc(S(N)(=O)=O)ccc1OC (stereo not shown) [sulpiride] | – | ED50 ([1]; mice, intraperitoneal, 30 minutes prior to apomorphine 1.5 mg/kg subcutaneously, climbing scored at 10, 20 and 30 minutes, linear regression): 4.5 mg/kg
